Measured values: US12491170B2, “Stable treprostinil prodrugs” (United Therapeutics Corporation, priority 2020, dated 2025)
Read-outs that look alike come from different tables or passages of the source.

Tests used:
[1] = Stability in liver microsomes, human; details: for AUC: human
Method: (§1) Mixed-gender human liver microsomes, male Sprague-Dawley rat liver microsomes, and male Beagle dog liver microsomes were purchased from XenoTech. The reaction mixture, minus NADPH, was prepared as described below. […] An aliquot of the reaction mixture (without cofactor) was equilibrated in a shaking water bath at 37° C. for 5 minutes. The reaction was initiated by the addition of cofactor, and the mixture was incubated in a shaking water bath at 37° C. Aliquots (200 μL) were withdrawn at 0, 10, 20, 30, and 60 minutes. Test article samples were immediately combined with 400 μL of ice-cold acetonitrile (ACN) to terminate the reaction. […] The samples were then mixed and centrifuged to precipitate proteins. Aliquots of the supernatant were removed, diluted 1:1 into distilled water containing internal standard, and analyzed by LC-MS/MS against calibration standards prepared in a matched matrix. All samples were analyzed for the dosed prodrugs as well as the drug, treprostinil. The test article concentration was compared to the concentration at time 0 to determine the percent of test article remaining at each time point. Half-lives and clearance were calculated using GraphPad software, fitting to a single-phase exponential decay equation.
(§2) • Liver Microsomes 0.5 mg/mL • NADPH (cofactor) 1 mM • Potassium Phosphate, pH 7.4 100 mM • Magnesium Chloride 5 mM • Test Article 1 μM

[2] = Stability in liver microsomes, rat
Method: as §1, §2

[3] = Stability in cryopreserved hepatocytes, human; details: for AUC: human
[4] = Stability in cryopreserved hepatocytes, dog; details: for AUC: dog
[5] = rat
[6] = dog
[7] = Stability in cryopreserved hepatocytes, rat; details: for AUC: rat
[8] = Stability in liver microsomes, dog
Method: as §1, §2

SMILES	Trep Concentration 0 min [1]	Trep Concentration 10 min [1]	Trep Concentration 30 min [1]	Trep Concentration 60 min [1]	AUC [1]	Trep Concentration 0 min [2]	Trep Concentration 10 min [2]	Trep Concentration 20 min [2]	Trep Concentration 30 min [2]	Trep Concentration 60 min [2]	Trep Concentration (μM) 0 min [3]	Trep Concentration (μM) 15 min [3]	Trep Concentration (μM) 30 min [3]	Trep Concentration (μM) 60 min [3]	Trep Concentration (μM) 120 min [3]	AUC [3]	Trep Concentration (μM) 0 min [4]	Trep Concentration (μM) 15 min [4]	Trep Concentration (μM) 30 min [4]	Trep Concentration (μM) 60 min [4]	other results
CCCCCC1CCC2C(CC3Cc4c(cccc4OCC(=O)O)CC32)OP(=O)(Oc2ccccc2)O1 (mixture of isomers) [XXVIII]	0 µM	0 µM	0 µM	0 µM	0.00 µmol·min/L	0 µM	0 µM	0 µM	0 µM	0 µM	0 µM	0 µM	0 µM	0 µM	0 µM	0.00 µmol·min/L	0 µM	0 µM	0 µM	0 µM	Trep Concentration 20 min [1]: 0 µM; Trep Concentration (μM) 120 min [4]: 0.00339 µM; AUC [4]: 0.10 µmol·min/L; AUC [5]: 0.00 µmol·min/L; AUC [6]: 0.11 µmol·min/L; Trep Concentration (μM) 0 min [7]: 0 µM; Trep Concentration (μM) 15 min [7]: 0 µM; Trep Concentration (μM) 30 min [7]: 0 µM; Trep Concentration (μM) 60 min [7]: 0 µM; Trep Concentration (μM) 120 min [7]: 0 µM; AUC [7]: 0.00 µmol·min/L; Trep Concentration 0 min [8]: 0 µM; Trep Concentration 10 min [8]: 0 µM; Trep Concentration 20 min [8]: 0.00553 µM; Trep Concentration 30 min [8]: 0.003 µM; Trep Concentration 60 min [8]: 0 µM
CCCCCC(CCC1C(O)CC2Cc3c(cccc3OCC(=O)O)CC21)Oc1ccccc1C(=O)O (stereo not shown) [LVI]	0 µM	0 µM	0 µM	0 µM	0.00 µmol·min/L	0 µM	0 µM	0 µM	0 µM	0 µM	0 µM	0 µM	0 µM	0 µM	0 µM	0.00 µmol·min/L	0 µM	0.005 µM	0.005 µM	0.003 µM	Trep Concentration 20 min [1]: 0 µM; Trep Concentration (μM) 120 min [4]: 0 µM; AUC [4]: 0.00 µmol·min/L; AUC [5]: 0.00 µmol·min/L; AUC [6]: 0.00 µmol·min/L; Trep Concentration (μM) 0 min [7]: 0 µM; Trep Concentration (μM) 15 min [7]: 0 µM; Trep Concentration (μM) 30 min [7]: 0 µM; Trep Concentration (μM) 60 min [7]: 0 µM; Trep Concentration (μM) 120 min [7]: 0 µM; AUC [7]: 0.00 µmol·min/L; Trep Concentration 0 min [8]: 0 µM; Trep Concentration 10 min [8]: 0 µM; Trep Concentration 20 min [8]: 0.003 µM; Trep Concentration 30 min [8]: 0 µM; Trep Concentration 60 min [8]: 0 µM
CCCCCC(CCC1C(O)CC2Cc3c(cccc3OCC(=O)O)CC21)OC(=O)c1ccc(C(F)(F)F)cc1 (stereo not shown) [LXII]	0.0917 µM	0.141 µM	0.2 µM	0.206 µM	10.70 µmol·min/L	0.0741 µM	0.0998 µM	0.124 µM	0.139 µM	0.139 µM	0 µM	0.0881 µM	0.14 µM	0.194 µM	0.222 µM	19.86 µmol·min/L	0 µM	0.0486 µM	0.0833 µM	0.128 µM	Trep Concentration 20 min [1]: 0.174 µM; Trep Concentration (μM) 120 min [4]: 0.166 µM; AUC [4]: 13.34 µmol·min/L; AUC [5]: 7.47 µmol·min/L; AUC [6]: 16.64 µmol·min/L; Trep Concentration (μM) 0 min [7]: 0.00378 µM; Trep Concentration (μM) 15 min [7]: 0.0946 µM; Trep Concentration (μM) 30 min [7]: 0.156 µM; Trep Concentration (μM) 60 min [7]: 0.227 µM; Trep Concentration (μM) 120 min [7]: 0.264 µM; AUC [7]: 23.09 µmol·min/L; Trep Concentration 0 min [8]: 0.127 µM; Trep Concentration 10 min [8]: 0.188 µM; Trep Concentration 20 min [8]: 0.254 µM; Trep Concentration 30 min [8]: 0.3 µM; Trep Concentration 60 min [8]: 0.372 µM
CCCCCC(CCC1C(O)CC2Cc3c(cccc3OCC(=O)O)CC21)OC(=O)c1ccc(O)c(O)c1 (stereo not shown) [LXVI]	0.0131 µM	0.0155 µM	0.0168 µM	0.0141 µM	0.94 µmol·min/L	0 µM	0.00332 µM	0.00368 µM	0.00422 µM	0.00722 µM	0 µM	0.0209 µM	0.0147 µM	0.0184 µM	0.0237 µM	2.18 µmol·min/L	0 µM	0 µM	0 µM	0 µM	Trep Concentration (μM) 120 min [4]: 0.00519 µM; AUC [4]: 0.16 µmol·min/L; AUC [5]: 0.26 µmol·min/L; AUC [6]: 0.17 µmol·min/L; Trep Concentration (μM) 0 min [7]: 0 µM; Trep Concentration (μM) 15 min [7]: 0 µM; Trep Concentration (μM) 30 min [7]: 0 µM; Trep Concentration (μM) 60 min [7]: 0 µM; Trep Concentration (μM) 120 min [7]: 0 µM; AUC [7]: 0.00 µmol·min/L; Trep Concentration 0 min [8]: 0 µM; Trep Concentration 10 min [8]: 0 µM; Trep Concentration 20 min [8]: 0 µM; Trep Concentration 30 min [8]: 0.00396 µM; Trep Concentration 60 min [8]: 0.00602 µM
CCCCCC(CCC1C(O)CC2Cc3c(cccc3OCC(=O)O)CC21)OC(=O)N1CCC(O)CC1 (stereo not shown) [LVIII]	0 µM	0 µM	0 µM	0 µM	0.00 µmol·min/L	0 µM	0 µM	0 µM	0 µM	0 µM	0 µM	0 µM	0 µM	0 µM	0 µM	0.00 µmol·min/L	0 µM	0 µM	0.00519 µM	0.00214 µM	Trep Concentration 20 min [1]: 0 µM; Trep Concentration (μM) 120 min [4]: 0.00344 µM; AUC [4]: 0.32 µmol·min/L; AUC [5]: 0.00 µmol·min/L; AUC [6]: 0.00 µmol·min/L; Trep Concentration (μM) 0 min [7]: 0 µM; Trep Concentration (μM) 15 min [7]: 0 µM; Trep Concentration (μM) 30 min [7]: 0 µM; Trep Concentration (μM) 60 min [7]: 0 µM; Trep Concentration (μM) 120 min [7]: 0 µM; AUC [7]: 0.00 µmol·min/L; Trep Concentration 0 min [8]: 0 µM; Trep Concentration 10 min [8]: 0 µM; Trep Concentration 20 min [8]: 0 µM; Trep Concentration 30 min [8]: 0 µM; Trep Concentration 60 min [8]: 0 µM
CCCCCC(CCC1C(O)CC2Cc3c(cccc3OCC(=O)O)CC21)OC(=O)c1cccc(O)c1 (stereo not shown) [LX]	0.105 µM	0.14 µM	0.126 µM	0.0865 µM	7.11 µmol·min/L	0.0226 µM	0.033 µM	0.0396 µM	0.0481 µM	0.0609 µM	0 µM	0.0671 µM	0.102 µM	0.123 µM	0.137 µM	12.95 µmol·min/L	0 µM	0.00428 µM	0.00492 µM	0.00784 µM	Trep Concentration 20 min [1]: 0.137 µM; AUC [4]: 0.88 µmol·min/L; AUC [5]: 2.72 µmol·min/L; AUC [6]: 2.51 µmol·min/L; Trep Concentration (μM) 0 min [7]: 0 µM; Trep Concentration (μM) 15 min [7]: 0.021 µM; Trep Concentration (μM) 30 min [7]: 0.0343 µM; Trep Concentration (μM) 60 min [7]: 0.0477 µM; Trep Concentration (μM) 120 min [7]: 0.0634 µM; AUC [7]: 5.14 µmol·min/L; Trep Concentration 0 min [8]: 0.0189 µM; Trep Concentration 10 min [8]: 0.0283 µM; Trep Concentration 20 min [8]: 0.0363 µM; Trep Concentration 30 min [8]: 0.044 µM; Trep Concentration 60 min [8]: 0.059 µM
